According to US10457691B2, “Macrocyclic kinase inhibitors and uses thereof” (Dana-Farber Cancer Institute, Inc., priority 2014, dated 2019):

Tests used:
Assay type in all cases: biochemical
Settings in all cases: read-out: Activity of the protein kinase when treated with compound I-1 (% control)
[1] = target: CHK2 (Homo sapiens, UniProt O96017); experiment: Protein kinase assay ([γ-32P] ATP), CHK2
Method: (§1) In another set of experiments, the activities of the compounds described herein against various protein kinases were determined according to the methods reported in Hastie et al., Nature Protocols, 2006, 1, 968-971.
(§2) Enzyme dilution buffer. This buffer consisted of 50 mM Tris-HCl, pH 7.5, 0.1 mM EGTA, 1 mg ml^−1 bovine serum albumin and 0.1% (vol/vol) 2-mercaptoethanol.
(§3) 10× concentrated assay buffer. An assay buffer of 500 mM Tris-HCl, pH 7.5, 1 mM EGTA, and 100 mM magnesium acetate was used for assay of a wide variety of protein kinases. In some experiments, other cofactors were included (e.g., calcium ions and calmodulin were included for assay of calcium-calmodulindependent protein kinases).
(§4) 1 mM [γ-^32P] ATP. The specific activity of the [γ-^32P] ATP solution was 1×10^5 to 1×10^6 c.p.m. per nmol depending on what was needed to produce an optimal signal/noise ratio. […] To measure the concentration of ATP, a sample of such a stock solution was diluted to 20 μM, and the absorbance of the diluted sample was measured at 259 nm. The absorbance of a 20-μM stock solution of ATP at 259 nm was about 0.31. […] ATP to produce a radioactivity of 1×10^5 to 1×10^6 c.p.m. per nmol. […]
(§5) 13) Measure radioactivity in the samples by Cerenkov counting (e.g., without liquid scintillation fluid) in a liquid scintillation counter using a “^32P program”. […]

[2] = target: PRAK (Homo sapiens, UniProt Q8IW41); experiment: Protein kinase assay ([γ-32P] ATP), PRAK
Method: as §1, §2, §3, §4, §5

[3] = target: BTK (Homo sapiens, UniProt Q06187); experiment: Protein kinase assay ([γ-32P] ATP), BTK
Method: as §1, §2, §3, §4, §5

[4] = target: MARK1 (Homo sapiens, UniProt Q9P0L2); experiment: Protein kinase assay ([γ-32P] ATP), MARK1
Sequence of MARK1 (Q9P0L2 whole entry): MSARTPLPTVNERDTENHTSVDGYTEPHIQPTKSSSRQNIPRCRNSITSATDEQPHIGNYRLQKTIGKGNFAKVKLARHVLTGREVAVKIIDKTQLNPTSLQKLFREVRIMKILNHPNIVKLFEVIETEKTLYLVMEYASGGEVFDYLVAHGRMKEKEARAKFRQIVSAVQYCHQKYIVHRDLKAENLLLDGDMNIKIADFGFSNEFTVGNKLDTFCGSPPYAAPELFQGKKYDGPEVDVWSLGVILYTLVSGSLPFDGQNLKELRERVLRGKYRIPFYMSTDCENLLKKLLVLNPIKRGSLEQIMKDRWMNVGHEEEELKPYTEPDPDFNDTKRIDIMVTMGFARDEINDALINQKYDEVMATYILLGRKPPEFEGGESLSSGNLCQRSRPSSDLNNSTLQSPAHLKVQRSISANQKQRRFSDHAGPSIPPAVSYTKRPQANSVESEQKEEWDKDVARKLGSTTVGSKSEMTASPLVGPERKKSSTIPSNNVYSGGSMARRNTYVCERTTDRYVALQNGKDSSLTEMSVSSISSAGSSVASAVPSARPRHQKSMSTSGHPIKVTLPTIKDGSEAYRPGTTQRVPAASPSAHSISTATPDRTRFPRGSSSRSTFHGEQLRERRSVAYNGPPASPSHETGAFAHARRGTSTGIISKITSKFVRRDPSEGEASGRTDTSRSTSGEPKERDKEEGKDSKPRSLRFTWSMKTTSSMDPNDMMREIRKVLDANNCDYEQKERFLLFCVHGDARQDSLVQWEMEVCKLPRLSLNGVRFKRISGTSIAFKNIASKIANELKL
Method: as §1, §2, §3, §4, §5

[5] = target: DYRK3 (Homo sapiens, UniProt O43781); experiment: Protein kinase assay ([γ-32P] ATP), DYRK3
Method: as §1, §2, §3, §4, §5

[6] = target: Aurora B (Homo sapiens, UniProt Q96GD4); experiment: Protein kinase assay ([γ-32P] ATP), Aurora B
Sequence of Aurora B (Q96GD4 whole entry): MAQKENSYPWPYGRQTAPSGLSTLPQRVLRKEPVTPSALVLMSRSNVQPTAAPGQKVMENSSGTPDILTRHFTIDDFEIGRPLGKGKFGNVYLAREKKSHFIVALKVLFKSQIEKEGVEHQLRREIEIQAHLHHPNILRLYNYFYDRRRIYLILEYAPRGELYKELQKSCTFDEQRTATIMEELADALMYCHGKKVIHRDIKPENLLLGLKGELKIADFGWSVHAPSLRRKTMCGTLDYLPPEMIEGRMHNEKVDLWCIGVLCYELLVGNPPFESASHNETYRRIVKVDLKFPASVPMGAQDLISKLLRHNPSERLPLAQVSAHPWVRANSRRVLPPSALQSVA
Method: as §1, §2, §3, §4, §5

[7] = target: IGF-1R (Homo sapiens, UniProt P08069); experiment: Protein kinase assay ([γ-32P] ATP), IGF-1R
Sequence of IGF-1R (P08069 31-1367): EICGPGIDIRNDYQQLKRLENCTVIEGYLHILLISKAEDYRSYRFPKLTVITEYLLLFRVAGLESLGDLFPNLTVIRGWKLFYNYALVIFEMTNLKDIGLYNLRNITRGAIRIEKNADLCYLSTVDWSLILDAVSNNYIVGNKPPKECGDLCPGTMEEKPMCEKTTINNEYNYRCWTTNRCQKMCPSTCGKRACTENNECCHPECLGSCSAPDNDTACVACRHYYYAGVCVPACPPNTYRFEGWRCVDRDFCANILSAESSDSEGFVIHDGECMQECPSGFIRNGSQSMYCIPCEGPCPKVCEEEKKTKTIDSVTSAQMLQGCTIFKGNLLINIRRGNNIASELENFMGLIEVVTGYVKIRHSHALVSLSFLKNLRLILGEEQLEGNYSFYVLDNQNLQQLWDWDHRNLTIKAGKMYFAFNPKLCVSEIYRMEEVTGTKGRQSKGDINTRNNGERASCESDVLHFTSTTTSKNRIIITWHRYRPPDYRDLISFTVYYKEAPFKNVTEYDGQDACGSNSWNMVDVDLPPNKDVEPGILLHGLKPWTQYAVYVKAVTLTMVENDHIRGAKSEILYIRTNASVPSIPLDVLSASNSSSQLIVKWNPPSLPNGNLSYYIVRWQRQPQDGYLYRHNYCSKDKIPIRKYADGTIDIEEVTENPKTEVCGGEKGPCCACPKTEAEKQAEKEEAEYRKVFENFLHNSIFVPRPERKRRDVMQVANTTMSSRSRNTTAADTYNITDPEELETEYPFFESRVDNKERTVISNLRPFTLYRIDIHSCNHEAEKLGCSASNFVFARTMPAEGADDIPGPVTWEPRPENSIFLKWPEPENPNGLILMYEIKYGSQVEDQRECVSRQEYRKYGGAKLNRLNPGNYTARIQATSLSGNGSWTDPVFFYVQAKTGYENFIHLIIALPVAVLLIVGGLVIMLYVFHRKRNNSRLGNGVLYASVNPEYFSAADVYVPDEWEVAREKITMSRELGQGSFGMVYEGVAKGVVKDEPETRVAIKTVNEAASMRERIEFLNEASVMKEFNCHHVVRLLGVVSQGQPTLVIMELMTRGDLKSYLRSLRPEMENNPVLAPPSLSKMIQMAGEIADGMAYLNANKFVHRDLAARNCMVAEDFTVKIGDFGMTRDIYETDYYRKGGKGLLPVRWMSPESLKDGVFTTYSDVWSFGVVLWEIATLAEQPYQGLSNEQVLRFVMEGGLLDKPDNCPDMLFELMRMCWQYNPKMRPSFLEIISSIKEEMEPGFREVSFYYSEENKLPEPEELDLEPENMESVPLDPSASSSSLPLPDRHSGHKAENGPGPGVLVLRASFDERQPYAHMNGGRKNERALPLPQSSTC
Method: as §1, §2, §3, §4, §5

[8] = target: PAK5 (Homo sapiens, UniProt Q9P286); experiment: Protein kinase assay ([γ-32P] ATP), PAK5
Sequence of PAK5 (Q9P286 whole entry): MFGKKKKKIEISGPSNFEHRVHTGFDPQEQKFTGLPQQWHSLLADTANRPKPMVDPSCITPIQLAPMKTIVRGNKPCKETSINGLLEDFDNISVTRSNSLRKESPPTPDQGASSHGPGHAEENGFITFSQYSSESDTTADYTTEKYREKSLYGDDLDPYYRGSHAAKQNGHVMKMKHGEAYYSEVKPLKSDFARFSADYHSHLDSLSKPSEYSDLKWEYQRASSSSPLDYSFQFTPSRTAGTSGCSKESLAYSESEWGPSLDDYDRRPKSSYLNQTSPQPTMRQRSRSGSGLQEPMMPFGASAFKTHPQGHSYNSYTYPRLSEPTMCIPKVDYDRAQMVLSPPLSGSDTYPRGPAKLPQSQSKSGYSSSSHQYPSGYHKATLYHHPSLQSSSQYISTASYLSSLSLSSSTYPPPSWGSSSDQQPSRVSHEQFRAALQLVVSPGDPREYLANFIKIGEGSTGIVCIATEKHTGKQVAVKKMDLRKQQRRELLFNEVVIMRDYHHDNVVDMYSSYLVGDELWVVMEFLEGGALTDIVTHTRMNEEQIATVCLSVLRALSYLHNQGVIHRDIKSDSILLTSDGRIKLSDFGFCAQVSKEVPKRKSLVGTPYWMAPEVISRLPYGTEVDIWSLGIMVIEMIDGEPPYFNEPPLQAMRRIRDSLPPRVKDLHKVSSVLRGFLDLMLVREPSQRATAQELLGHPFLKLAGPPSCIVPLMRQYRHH
Method: as §1, §2, §3, §4, §5

[9] = target: CAMK1 (Homo sapiens, UniProt Q14012); experiment: Protein kinase assay ([γ-32P] ATP), CAMK1
Sequence of CAMK1 (Q14012 whole entry): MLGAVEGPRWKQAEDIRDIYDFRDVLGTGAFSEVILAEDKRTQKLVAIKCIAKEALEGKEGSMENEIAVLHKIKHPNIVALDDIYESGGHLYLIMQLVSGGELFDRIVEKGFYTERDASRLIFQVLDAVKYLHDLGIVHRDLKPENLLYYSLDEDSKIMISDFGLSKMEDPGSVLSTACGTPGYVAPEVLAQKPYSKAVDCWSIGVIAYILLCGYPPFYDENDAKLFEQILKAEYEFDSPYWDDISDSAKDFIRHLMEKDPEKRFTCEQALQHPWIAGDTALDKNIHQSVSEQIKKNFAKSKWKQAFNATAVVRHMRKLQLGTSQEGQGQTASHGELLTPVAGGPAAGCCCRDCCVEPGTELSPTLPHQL
Method: as §1, §2, §3, §4, §5

[10] = target: HIPK2 (Homo sapiens, UniProt Q9H2X6); experiment: Protein kinase assay ([γ-32P] ATP), HIPK2
Method: as §1, §2, §3, §4, §5

[11] = target: JNK1 (Homo sapiens, UniProt P45983); experiment: Protein kinase assay ([γ-32P] ATP), JNK1
Method: as §1, §2, §3, §4, §5

[12] = target: MINK1 (Homo sapiens, UniProt Q8N4C8); experiment: Protein kinase assay ([γ-32P] ATP), MINK1
Method: as §1, §2, §3, §4, §5

[13] = target: IR (Homo sapiens, UniProt P06213); experiment: Protein kinase assay ([γ-32P] ATP), IR
Method: as §1, §2, §3, §4, §5

[14] = target: BRSK2 (Homo sapiens, UniProt Q8IWQ3); experiment: Protein kinase assay ([γ-32P] ATP), BRSK2
Method: as §1, §2, §3, §4, §5

[15] = target: PIM2 (Homo sapiens, UniProt Q9P1W9); experiment: Protein kinase assay ([γ-32P] ATP), PIM2
Method: as §1, §2, §3, §4, §5

[16] = target: TBK1 (Homo sapiens, UniProt Q9UHD2); experiment: Protein kinase assay ([γ-32P] ATP), TBK1
Sequence of TBK1 (Q9UHD2 whole entry, species assumed): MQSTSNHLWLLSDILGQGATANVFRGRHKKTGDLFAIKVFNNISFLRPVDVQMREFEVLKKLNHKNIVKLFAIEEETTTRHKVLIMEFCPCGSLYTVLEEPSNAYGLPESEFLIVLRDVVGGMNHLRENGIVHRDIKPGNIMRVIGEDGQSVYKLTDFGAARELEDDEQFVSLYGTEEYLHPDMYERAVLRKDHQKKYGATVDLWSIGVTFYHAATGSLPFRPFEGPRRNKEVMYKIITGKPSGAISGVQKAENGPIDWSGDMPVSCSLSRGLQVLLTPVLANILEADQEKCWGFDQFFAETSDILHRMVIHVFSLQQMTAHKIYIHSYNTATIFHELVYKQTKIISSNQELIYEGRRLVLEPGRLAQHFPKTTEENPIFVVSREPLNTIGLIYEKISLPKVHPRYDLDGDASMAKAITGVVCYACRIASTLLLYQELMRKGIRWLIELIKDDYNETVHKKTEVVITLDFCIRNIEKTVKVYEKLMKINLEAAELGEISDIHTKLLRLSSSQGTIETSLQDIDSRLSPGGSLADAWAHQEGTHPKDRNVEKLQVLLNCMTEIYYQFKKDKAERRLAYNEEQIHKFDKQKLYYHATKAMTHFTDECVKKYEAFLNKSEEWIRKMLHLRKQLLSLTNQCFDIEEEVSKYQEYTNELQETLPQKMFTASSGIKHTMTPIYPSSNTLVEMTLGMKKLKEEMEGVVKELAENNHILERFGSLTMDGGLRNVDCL
Method: as §1, §2, §3, §4, §5

[17] = target: BRSK1 (Homo sapiens, UniProt Q8TDC3); experiment: Protein kinase assay ([γ-32P] ATP), BRSK1
Sequence of BRSK1 (Q8TDC3 whole entry): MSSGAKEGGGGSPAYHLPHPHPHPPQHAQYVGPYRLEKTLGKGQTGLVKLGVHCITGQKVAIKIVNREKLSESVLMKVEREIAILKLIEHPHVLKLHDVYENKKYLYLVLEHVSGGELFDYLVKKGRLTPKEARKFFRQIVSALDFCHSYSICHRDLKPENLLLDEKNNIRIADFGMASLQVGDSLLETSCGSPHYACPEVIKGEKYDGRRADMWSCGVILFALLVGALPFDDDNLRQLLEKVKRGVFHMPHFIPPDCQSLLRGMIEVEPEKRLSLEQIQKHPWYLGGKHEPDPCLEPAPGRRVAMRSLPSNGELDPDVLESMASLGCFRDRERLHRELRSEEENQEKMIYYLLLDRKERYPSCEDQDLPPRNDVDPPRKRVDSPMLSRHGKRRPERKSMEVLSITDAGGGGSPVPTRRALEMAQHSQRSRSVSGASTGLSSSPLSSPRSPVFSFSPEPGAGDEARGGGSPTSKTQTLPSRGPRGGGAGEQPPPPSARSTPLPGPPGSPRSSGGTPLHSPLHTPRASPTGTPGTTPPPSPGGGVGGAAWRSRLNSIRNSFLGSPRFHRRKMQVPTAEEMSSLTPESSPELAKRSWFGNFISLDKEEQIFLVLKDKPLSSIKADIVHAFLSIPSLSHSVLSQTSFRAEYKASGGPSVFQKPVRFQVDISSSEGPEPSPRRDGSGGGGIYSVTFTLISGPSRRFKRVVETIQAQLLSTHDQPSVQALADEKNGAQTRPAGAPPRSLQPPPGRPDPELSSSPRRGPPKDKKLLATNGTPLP
Method: as §1, §2, §3, §4, §5

[18] = 0.1 μM of compound I-1, DMSO control = 100%
[19] = 1 μM of compound I-1, DMSO control = 100%

Cc1cccc(C)c1NC(=O)N1C/C=C\COc2cccc(c2)Nc2cc1ncn2 [Compound I-1]
remaining activity at 0.1 µM [1, 18]: 107% | remaining activity at 1 µM [1, 19]: 72% | remaining activity at 0.1 µM [2, 18]: 107% | remaining activity at 1 µM [2, 19]: 84% | remaining activity at 0.1 µM [3, 18]: 46% | remaining activity at 1 µM [3, 19]: 48% | remaining activity at 0.1 µM [4, 18]: 62% | remaining activity at 1 µM [4, 19]: 68% | remaining activity at 0.1 µM [5, 18]: 99% | remaining activity at 1 µM [5, 19]: 87% | remaining activity at 0.1 µM [6, 18]: 89% | remaining activity at 1 µM [6, 19]: 78% | remaining activity at 0.1 µM [7, 18]: 109% | remaining activity at 1 µM [7, 19]: 61% | remaining activity at 0.1 µM [8, 18]: 90% | remaining activity at 1 µM [8, 19]: 64% | remaining activity at 0.1 µM [9, 18]: 115% | remaining activity at 1 µM [9, 19]: 56% | remaining activity at 0.1 µM [10, 18]: 110% | remaining activity at 1 µM [10, 19]: 91% | remaining activity at 0.1 µM [11, 18]: 93% | remaining activity at 1 µM [11, 19]: 72% | remaining activity at 0.1 µM [12, 18]: 46% | remaining activity at 1 µM [12, 19]: 9% | remaining activity at 0.1 µM [13, 18]: 102% | remaining activity at 1 µM [13, 19]: 93% | remaining activity at 0.1 µM [14, 18]: 110% | remaining activity at 1 µM [14, 19]: 78% | remaining activity at 0.1 µM [15, 18]: 92% | remaining activity at 1 µM [15, 19]: 90% | remaining activity at 0.1 µM [16, 18]: 109% | remaining activity at 1 µM [16, 19]: 83% | remaining activity at 0.1 µM [17, 18]: 87% | remaining activity at 1 µM [17, 19]: 66%
